Test results published in PubChem BioAssay (NCI).
Several values for one entry are separate records, joined by “and”; a condition that tells them apart may be missing. Identical values can stand only once.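 All cell lines were grown in 96-well plates and treated with compound for 48 hours. The concentration for 50% growth inhibition is given as GI50. TGI: concentration producing complete growth inhibition.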

How the values were obtained:
Assay in all cases: NCI anticancer screen, dose series, 48 h
[1] = system: CAKI-1 renal
[2] = system: SN12C renal
[3] = system: MDA-MB-435
[4] = system: CCRF-CEM leukemia
[5] = system: SK-MEL-28 melanoma
[6] = system: U251 CNS
[7] = system: PC-3 prostate
[8] = system: M14 melanoma
[9] = system: COLO 205 colon
[10] = system: SW-620 colon
[11] = system: RXF 393 renal
[12] = system: OVCAR-4 ovarian
[13] = system: OVCAR-3 ovarian
[14] = system: HT29 colon
[15] = system: SK-MEL-2 melanoma
[16] = system: UO-31 renal
[17] = system: HCC-2998 colon
[18] = system: NCI-H23 lung
[19] = system: KM12 colon
[20] = system: SK-OV-3 ovarian
[21] = system: MALME-3M melanoma
[22] = system: SNB-75 CNS
[23] = system: LOX IMVI melanoma
[24] = system: NCI/ADR-RES ovarian
[25] = system: BT-549 breast
[26] = system: SF-295 CNS
[27] = system: HL-60(TB) leukemia
[28] = system: A498 renal
[29] = system: NCI-H460 lung
[30] = system: SNB-19 CNS
[31] = system: MOLT-4 leukemia
[32] = system: HCT-15 colon
[33] = system: K-562 leukemia
[34] = system: HOP-92 NSCLC
[35] = system: HCT-116 colon
[36] = system: T-47D breast
[37] = system: SF-268 CNS
[38] = system: HOP-62 NSCLC
[39] = system: OVCAR-5 ovarian
[40] = system: NCI-H522 lung
[41] = system: SF-539 CNS
[42] = system: UACC-62 melanoma
[43] = system: IGROV1 ovarian
[44] = system: NCI-H226 lung
[45] = system: MCF7 breast
[46] = system: SK-MEL-5 melanoma
[47] = system: A549 NSCLC
[48] = system: TK-10 renal
[49] = system: RPMI-8226 leukemia
[50] = system: 786-0 renal
[51] = system: HS 578T breast
[52] = system: DU-145 prostate
[53] = system: UACC-257 melanoma

Which GI50 [1] does the source give for `C#CC(F)(F)[C@]1(O)CC[C@H]2[C@@H]3CCC4=CC(=O)CCC4=C3[C@@H](c3ccc(C4CC4)cc3)C[C@@]21C` here?
The GI50 was 103 nM and < 17.1 nM.

And the TGI [1]?
The TGI was 633 nM and 74.5 nM.

And the GI50 [2]?
The GI50 was 933 nM and 2450 nM.

What about the TGI [2] of the same compound?
The TGI was 8690 nM and 10500 nM.

What about the GI50 [3] of the same compound?
Its GI50 is 4590 nM and 2250 nM.

What about the TGI [3] of the same compound?
Its TGI is 23900 nM and 10300 nM.

What about the GI50 [4] of the same compound?
Its GI50 is 17 nM and < 10 nM.

What about the TGI [4] of the same compound?
The TGI was 43 nM and < 13.9 nM.

What about the GI50 [5] of the same compound?
Its GI50 is 5330 nM and 2310 nM.

And the TGI [5]?
Its TGI is 17900 nM and 5960 nM.

And the GI50 [6]?
The GI50 was 48 nM and 395 nM.

What about the TGI [6] of the same compound?
The TGI was 234 nM and 2200 nM.

And the GI50 [7]?
The GI50 was 44.1 nM and 414 nM.

And the TGI [7]?
Its TGI is 313 nM and 2740 nM.

And the GI50 [8]?
The GI50 was 844 nM and 2780 nM.

What about the TGI [8] of the same compound?
The TGI was 2920 nM and 18800 nM.

What about the GI50 [9] of the same compound?
The GI50 was 1790 nM and 1220 nM.

And the TGI [9]?
Its TGI is 11200 nM and 3590 nM.

And the GI50 [10]?
Its GI50 is 1250 nM and 2360 nM.

What about the TGI [10] of the same compound?
The TGI was 7440 nM and 12400 nM.

And the TGI [11]?
Its TGI is 2920 nM and 7000 nM.

What about the GI50 [12] of the same compound?
Its GI50 is 1010 nM.

And the TGI [12]?
The TGI was greater than 100000 nM.

What about the GI50 [13] of the same compound?
Its GI50 is 15.9 nM and 24.5 nM.

And the TGI [13]?
Its TGI is 32.6 nM and 169 nM.

What about the GI50 [14] of the same compound?
Its GI50 is 42.8 nM and < 20 nM.

What about the TGI [14] of the same compound?
Its TGI is 171 nM and 184 nM.

What about the GI50 [15] of the same compound?
Its GI50 is 2650 nM and 2220 nM.

What about the TGI [15] of the same compound?
Its TGI is 7740 nM and 6010 nM.

And the GI50 [16]?
The GI50 was less than 10 nM.

And the TGI [16]?
The TGI was less than 10 nM.

And the GI50 [17]?
Its GI50 is 5600 nM and 3720 nM.

What about the TGI [17] of the same compound?
Its TGI is 29900 nM and > 65600 nM.

What about the GI50 [18] of the same compound?
The GI50 was 24.2 nM and < 15.1 nM.

What about the TGI [18] of the same compound?
Its TGI is 268 nM and < 41 nM.

What about the GI50 [19] of the same compound?
The GI50 was 21.4 nM and < 17.7 nM.

What about the GI50 [20] of the same compound?
The GI50 was 162 nM and 69.5 nM.

What about the TGI [20] of the same compound?
The TGI was 312 nM and 215 nM.

And the GI50 [21]?
Its GI50 is 43.6 nM and < 15.1 nM.

And the TGI [21]?
Its TGI is 94.6 nM and < 28 nM.

And the GI50 [22]?
The GI50 was 147 nM.

And the TGI [22]?
The TGI was 437 nM.

What about the GI50 [23] of the same compound?
Its GI50 is less than 10 nM.

And the TGI [23]?
The TGI was less than 10 nM.

And the GI50 [24]?
The GI50 was 83 nM and 164 nM.

What about the TGI [24] of the same compound?
The TGI was 2820 nM and 5550 nM.

What about the GI50 [25] of the same compound?
The GI50 was 1160 nM and 1280 nM.

And the TGI [25]?
Its TGI is 2940 nM and 3570 nM.

And the GI50 [26]?
The GI50 was 31.9 nM and < 10 nM.

What about the TGI [26] of the same compound?
Its TGI is 82.1 nM and < 10 nM.

What about the GI50 [27] of the same compound?
The GI50 was less than 10 nM.

What about the TGI [27] of the same compound?
Its TGI is 21.6 nM and < 10 nM.

And the GI50 [28]?
Its GI50 is 495 nM and 593 nM.

What about the TGI [28] of the same compound?
Its TGI is 1930 nM and 1740 nM.

What about the GI50 [29] of the same compound?
Its GI50 is 2380 nM and 2280 nM.

What about the TGI [29] of the same compound?
The TGI was 9900 nM and 9670 nM.

And the GI50 [30]?
The GI50 was 1440 nM and 3910 nM.

And the GI50 [31]?
Its GI50 is 1160 nM and 1620 nM.

What about the TGI [31] of the same compound?
Its TGI is 4000 nM and 5000 nM.

And the GI50 [32]?
Its GI50 is 1550 nM and 1810 nM.

And the TGI [32]?
Its TGI is greater than 100000 nM.

And the GI50 [33]?
The GI50 was 815 nM and 2210 nM.

What about the TGI [33] of the same compound?
The TGI was 11700 nM and > 100000 nM.

And the GI50 [34]?
Its GI50 is 16.7 nM and < 16.1 nM.

What about the TGI [34] of the same compound?
The TGI was 37.4 nM and < 25.3 nM.

What about the GI50 [35] of the same compound?
The GI50 was 3190 nM and 2900 nM.

What about the TGI [35] of the same compound?
Its TGI is 13200 nM and 19000 nM.

What about the GI50 [36] of the same compound?
The GI50 was less than 10 nM.

What about the TGI [36] of the same compound?
Its TGI is 59000 nM and 8400 nM.

What about the GI50 [37] of the same compound?
The GI50 was 54.1 nM and 97.1 nM.

And the TGI [37]?
The TGI was 183 nM and 322 nM.

And the GI50 [38]?
Its GI50 is 367 nM and 201 nM.

What about the TGI [38] of the same compound?
Its TGI is 5440 nM and 1720 nM.

And the GI50 [39]?
Its GI50 is 271 nM and 1280 nM.

What about the TGI [39] of the same compound?
Its TGI is 2270 nM and 5790 nM.

And the GI50 [40]?
The GI50 was less than 10 nM.

And the TGI [40]?
Its TGI is 17.4 nM and < 10 nM.

What about the GI50 [41] of the same compound?
The GI50 was 20.7 nM and < 15.5 nM.

And the TGI [41]?
Its TGI is 45.8 nM and 31.7 nM.

And the GI50 [42]?
Its GI50 is 762 nM and 1420 nM.

What about the TGI [42] of the same compound?
Its TGI is 2360 nM and 4220 nM.

What about the GI50 [43] of the same compound?
Its GI50 is less than 11.4 nM.

What about the TGI [43] of the same compound?
The TGI was less than 15.5 nM.

And the GI50 [44]?
Its GI50 is 7790 nM and 3150 nM.

And the TGI [44]?
Its TGI is 72900 nM and 11500 nM.

What about the GI50 [45] of the same compound?
The GI50 was 1560 nM and 1160 nM.

And the TGI [45]?
The TGI was greater than 100000 nM.

What about the GI50 [46] of the same compound?
The GI50 was 4050 nM and 3050 nM.

And the TGI [46]?
The TGI was 10700 nM and 8410 nM.

What about the GI50 [47] of the same compound?
The GI50 was 400 nM and 470 nM.

And the TGI [47]?
The TGI was 3910 nM and 7220 nM.

And the GI50 [48]?
Its GI50 is 4550 nM and 2240 nM.

And the TGI [48]?
Its TGI is 20900 nM and 8330 nM.

What about the GI50 [49] of the same compound?
Its GI50 is 139 nM and 125 nM.

What about the TGI [49] of the same compound?
Its TGI is 1000 nM and 915 nM.

And the GI50 [50]?
The GI50 was less than 10 nM.

What about the TGI [50] of the same compound?
Its TGI is less than 10.6 nM.

What about the GI50 [51] of the same compound?
The GI50 was 205 nM and 1320 nM.

And the TGI [51]?
Its TGI is 2630 nM and 7340 nM.

What about the GI50 [52] of the same compound?
Its GI50 is 814 nM and 2130 nM.

And the TGI [52]?
The TGI was 6550 nM and 15400 nM.

What about the GI50 [53] of the same compound?
The GI50 was 7720 nM and 6450 nM.

What about the TGI [53] of the same compound?
The TGI was 71800 nM and > 100000 nM.
